Experimental data as given in the supplement of paper PMC10307832.

How the values were obtained:
Assay in all cases: relative viability (nuclei count vs DMSO), 5 days (fraction); higher = more cells survive
BI-2536 + Navitoclax = compound: CC[C@@H]1C(=O)N(C)c2cnc(Nc3ccc(C(=O)NC4CCN(C)CC4)cc3OC)nc2N1C1CCCC1 [BI-2536] + CC1(C)CCC(c2ccc(Cl)cc2)=C(CN2CCN(c3ccc(C(=O)NS(=O)(=O)c4ccc(N[C@H](CCN5CCOCC5)CSc5ccccc5)c(S(=O)(=O)C(F)(F)F)c4)cc3)CC2)C1 [Navitoclax] (partner 0.5 µM)
Procedure, shortened: (§1)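 Relative viability was taken as the ratio of nuclei in treated wells to nuclei in vehicle wells. Lung cancer cell lines in 1536-well plates received compounds by pin tool one day after seeding, either one drug alone or a fixed anchor-drug dose plus five library-drug doses (not always all listed) in √10 steps. Nuclei were counted on 4× images after 5 days of treatment, and values are medians of duplicate plates.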

BI-2536 + Trametinib = compound: CC[C@@H]1C(=O)N(C)c2cnc(Nc3ccc(C(=O)NC4CCN(C)CC4)cc3OC)nc2N1C1CCCC1 [BI-2536] + CC(=O)Nc1cccc(-n2c(=O)n(C3CC3)c(=O)c3c(Nc4ccc(I)cc4F)n(C)c(=O)c(C)c32)c1 [Trametinib] (partner 0.02 µM)
Procedure, shortened: as §1

[1] = compound: CC1CC(=O)N(C2=CN=C(N=C2N1C3CCCC3)NC4=C(C=C(C=C4)C(=O)NC5CCN(CC5)C)OC)C [NPK76-II-72-1] + COc1cc2c(Oc3ccc(NC(=O)C4(C(=O)Nc5ccc(F)cc5)CC4)cc3F)ccnc2cc1OCCCN1CCOCC1 [Foretinib] (partner 0.25 µM)
Procedure, shortened: as §1

[2] = compound: CC1CC(=O)N(C2=CN=C(N=C2N1C3CCCC3)NC4=C(C=C(C=C4)C(=O)NC5CCN(CC5)C)OC)C [NPK76-II-72-1] + O=C(CCCCCCC(=O)Nc1ccccc1)NO [Vorinostat] (partner 1 µM)
Procedure, shortened: as §1

| Cell Line | relative viability (BI-2536 + Navitoclax; first compound 0.01 µM) | relative viability (BI-2536 + Navitoclax; first compound 0.03162 µM) | relative viability (BI-2536 + Navitoclax; first compound 0.1 µM) | relative viability (BI-2536 + Navitoclax; first compound 0.3162 µM) | relative viability (BI-2536 + Navitoclax; first compound 1 µM) | relative viability (BI-2536 + Trametinib; first compound 0.01 µM) | relative viability (BI-2536 + Trametinib; first compound 0.03162 µM) | relative viability (BI-2536 + Trametinib; first compound 0.1 µM) | relative viability (BI-2536 + Trametinib; first compound 0.3162 µM) | relative viability (BI-2536 + Trametinib; first compound 1 µM) | relative viability ([1]; first compound 0.01 µM) | relative viability ([1]; first compound 0.03162 µM) | relative viability ([1]; first compound 0.1 µM) | relative viability ([1]; first compound 0.3162 µM) | relative viability ([1]; first compound 1 µM) | relative viability ([2]; first compound 0.01 µM) | relative viability ([2]; first compound 0.03162 µM) | relative viability ([2]; first compound 0.1 µM) | relative viability ([2]; first compound 0.3162 µM) | relative viability ([2]; first compound 1 µM) |
| --- | --- | --- | --- | --- | --- | --- | --- | --- | --- | --- | --- | --- | --- | --- | --- | --- | --- | --- | --- | --- |
| NCI-H2347 | 0.759 | 0.742 | 0.744 | 0.358 | 0.326 | 0.261 | 0.302 | 0.282 | 0.264 | 0.238 | 0.844 | 1.1 | 0.935 | 0.424 | 0.917 | 0.744 | 0.588 | 0.656 | 0.641 | 0.603 |
| NCI-H2405 | 0.7 | 0.218 | 0.106 | 0.0606 | 0.116 | 0.607 | 0.549 | 0.441 | 0.277 | 0.357 | 1.05 | 1.08 | 0.999 | 1.03 | 1.17 | 0.949 | 0.791 | 1.04 | 1.07 | 1.03 |
| NCI-H3122 | 1 | 0.991 | 0.525 | 0.233 | 0.241 | 0.226 | 0.239 | 0.209 | 0.131 | 0.171 | 0.93 | 1.01 | 0.902 | 0.866 | 0.958 | 0.943 | 0.923 | 1.05 | 1.05 | 1.05 |
| PC-3 [JPC-3] | 0.849 | 0.774 | 0.743 | 0.319 | 0.212 | 0.71 | 0.583 | 0.616 | 0.357 | 0.438 | 1.04 | 1.06 | 0.96 | 0.952 | 1.12 | 0.807 | – | 0.799 | 0.848 | 0.905 |
| PC-14 | 1.05 | 1.06 | 0.902 | 0.0528 | 0.0559 | 0.847 | 0.71 | 0.0723 | 0.0556 | 0.0339 | 0.936 | 1.1 | 0.894 | 0.928 | 1.01 | 0.717 | 0.73 | 0.684 | 0.698 | 0.807 |
| RERF-LC-KJ | 0.861 | 0.827 | 0.727 | 0.186 | 0.263 | 0.884 | 0.953 | 0.527 | 0.186 | 0.225 | 0.768 | 0.899 | 0.894 | 0.808 | 0.884 | 0.639 | 0.725 | 0.662 | 0.701 | 0.673 |
| SK-LU-1 | 0.738 | 0.894 | 0.52 | 0.118 | 0.139 | 0.347 | 0.514 | 0.335 | 0.218 | 0.386 | 0.814 | 0.83 | 0.879 | 0.833 | 0.893 | 0.722 | 0.77 | 0.756 | 0.77 | 0.851 |
| SK-MES-1 | 1.21 | 1.37 | 1.14 | 0.126 | 0.139 | 0.523 | 0.555 | 0.407 | 0.196 | 0.161 | 0.975 | 0.957 | 0.877 | 0.808 | 0.912 | 1.06 | 1.05 | 1.12 | 1.17 | 1.22 |
| SW 1573 | 1.04 | 1.05 | 1.05 | 0.0673 | 0.0547 | 0.515 | 0.51 | 0.117 | 0.103 | 0.0762 | 0.997 | 1.02 | 0.914 | 0.963 | 0.824 | 0.787 | 0.916 | 0.637 | 0.532 | 0.831 |
